Experimental findings from patent US6767903B1, “New7α, 17α-bis-alkylated testosterone derivatives and their use in long-term therapy of androgen-dependent diseases” (Schering AG, priority 1998, dated 2004) are described below.

Read-outs that look alike come from different tables or passages of the source.

For the experiment, the system named is human prostate cancer cell line LNCaP. In words: Antiproliferation test with the human prostate cancer cell line (LNCaP). In kind it is cell-based. As to conditions: LNCaP cells; for IC50: growth stimulated by 0.1 nM R1881, 7 days, MTT readout, read-out: Antiandrogeneity IC50 in the presence of 0.1 nM of R1881; for Androgeneity at 1 μM: test compound at 1 μM, growth stimulation by 0.1 nM of R1881 was set = 100%. From the text:
Antiproliferation Test with the Human Prostate Cancer Cell Line (LNCaP)
The human prostate cancer cell line LNCaP [American Type Culture Collection (ATCC)=Accession No.: CRL 1740; Horoszewicz et al., Cancer Research, 43 pp. 1809-18, 1983] was isolated from the lymph node metastasis of a prostate cancer patient. It expresses the androgen receptor and can be stimulated in growth by androgens. The androgen-mediated growth stimulation can be blocked by simultaneous administration of antiandrogens. The antiandrogenic active strength (IC50) of test compounds can be determined by dose-action correlations.
The cells are cultivated in RPMI 1640 medium with penicillin (10,000 units/l), streptomycin (100 mg/l), glutamine ([…]), 10% fetal calf serum and 0.1 nM of the synthetic androgen R1881 (Metribolone, Roussel).
Day 1: Sowing of the cells in a density of 5,000-6,000/100 μl/hole in 96-hole plates. Adding test compound (100 μl/hole doubly concentrated) to the culture medium with 0.2 nM of R1881 (yields 0.1 nM final concentration). Incubation of the cells for 72 or 96 hours at 37° C., 5% CO2, 90% relative atmospheric humidity. In the culture medium, the fetal calf serum is replaced by 5% activated carbon-treated (steroid-free) serum.
Day 3 or 4: Medium change: In each case in 50% of the medium, inclusive test compounds are replaced by fresh medium. Incubation of the cells for 96 or 72 hours at 37° C., 5% CO2, 90% relative atmospheric humity.
Day 7: Adding 25 μl of MTT solution per hole {MTT=(3[4,5-dimethylthiazol-2-yl]-2,5-diphenaltetrazolium bromide (thiazolyl blue}. Incubation is for 3 hours at 37° C., 5% CO2, 90% relative atmospheric humidity. After the removal of the supernatant, addition of 100 μl of DMSO per hole. Measurement of the optical density at […].
The antiandrogens OH-flutamide and casodex that are found in clinical practice were tested, as well as the compound EM-101 (N-butyl, N-methyl-11-(17′β-hydroxy-4′-androsten-3′-on-7′α-yl)undecanamide of WO 91/00732.

A word on the IC50: it is the concentration that gives 50% inhibition. For `C[C@]12CCC(=O)C=C1C[C@@H](CCCCCCCCCO)[C@@H]1[C@@H]2CC[C@@]2(C)[C@H]1CC[C@]2(C)O` [Example 53, 17β-Hydroxy-7α-(9-hydroxynonyl)-17α-methylandrost-4-en-3-one], the “Androgeneity at 1 μM” value stood at 0%. For the same molecule, the IC50 (Homo sapiens, 168 h) was 40 nM.

On to `CC12CCC(=O)C=C1CC(CCCCCCCCCC[S+]([O-])c1ccccc1)C1C2CCC2(C)C1CCC2(O)C(F)(F)C(F)(F)F` (stereo not drawn) [Example 20, 17β-Hydroxy-17α-(1,1,2,2,2-pentafluoroethyl)-7α-[10-(phenylsulfinyl)decyl]androst-4-en-3-one], for which the concentration for half-maximal inhibition (IC50) was 200 nM and the “Androgeneity at 1 μM” value was determined as 0%.

On to `CC(O)(CS(=O)(=O)c1ccc(F)cc1)C(=O)Nc1ccc(C#N)c(C(F)(F)F)c1` (stereo not shown) [Casodex], for which the “Androgeneity at 1 μM” value turned out to be 7%. In addition, for the setting “Homo sapiens, 168 h”, the IC50 was 440 nM.

On to `CCCCN(C)C(=O)CCCCCCCCCC[C@@H]1CC2=CC(=O)CC[C@]2(C)[C@H]2CC[C@]3(C)[C@@H](O)CC[C@H]3[C@H]12` [EM-101, N-butyl, N-methyl-11-(17′β-hydroxy-4′-androsten-3′-on-7′α-yl)undecanamide], for which the half-maximal inhibitory concentration (IC50) was 4440 nM and the “Androgeneity at 1 μM” value was 0%.

Regarding `CC(C)(O)C(=O)Nc1ccc([N+](=O)[O-])c(C(F)(F)F)c1` [OH-flutamide], the half-inhibitory concentration (IC50) was greater than 10000 nM and the “Androgeneity at 1 μM” value stood at 144%.
